Results from patent publication US20120328602A1, “COMPOSITIONS AND METHODS FOR TREATING CONDITIONS ASSOCIATED WITH CERAMIDE BIOSYNTHESIS” (priority 2007, published 2012).
Entries after “also recorded” stand apart in the source; their conditions may differ.

Key:
ceramide synthase = ceramide synthase activity in spinal cord homogenates; assay type: in vivo, mice
Method: About 60 to 80 mg of spinal cord homogenates were incubated with [^3H]-palmytic acid (2.5 μCi/ml, GE Healthcare, England) for one hour. Lipids were extracted with ice-cold methanol containing 2% acetic acid and 5% chloroform and resolved using thin-layer chromatography. Lipids co-migrating with standards were scraped and quantified by […] counting as described elsewhere (Castillo et al., 2007).

mice = assay: Rotarod motor function test; assay type: in vivo; settings: myriocin 0.4 mg/kg, FB1 1 mg/kg, D609 40 mg/kg; fifteen, thirty, and sixty minutes after administration; n=4; vs vehicle
Method: Mice were trained before experimentation for their ability to remain for one-hundred twenty seconds on a revolving Rotarod apparatus (accelerating units increase from 3.5 to 35 rpm in five minutes). Mice (n=4 per group) were injected with an i.p. injection of the highest dose of FB1 (1 mg/kg), myriocin (0.4 mg/kg), D609 (40 mg/kg) used to block antinociceptive tolerance or its vehicle. Mice (n=4 per group) were tested and examined for motor […] on the Rotarod at fifteen, thirty, and sixty minutes after drug administration as described in the method section. The latency time to fall off the Rotarod was determined. A cut-off time of one-hundred twenty seconds was used.

[1] = system: manganese superoxide dismutase (MnSOD); assay: measurement of MnSOD enzymatic activity, spectrophotometric; assay type: in vivo, mice; settings: FB1 0.25-1 mg/kg/d with morphine, n=5
Method: Dorsal halves of the spinal cord lumbar region enlargement (L4-L6) were homogenized with 10 mM phosphate buffered saline (pH 7.4) in a Polytron homogenizer and then sonicated on ice for one minute (twenty seconds, three times). The sonicated samples were subsequently centrifuged at 1,100×g for ten minutes. SOD activity was measured in the supernatants as described previously (Wang et al., 2004). A competitive inhibition assay was performed which used xanthine-xanthine oxidase-generated superoxide to reduce nitroblue tetrazolium (NBT) to blue tetrazolium salt. The reaction was performed in sodium carbonate buffer (50 mM, pH 10.1) containing EDTA (0.1 mM), nitroblue tetrazolium (25 μM), xanthine and xanthine-oxidase (0.1 mM and 2 nM respectively; Boehringer, Germany). The rate of NBT reduction was monitored spectrophotometrically (Perkin Elmer Lambda 5 Spectrophotometer, Milan, Italy) at 560 nm. The amount of protein required to inhibit the rate of NTB reduction by 50% was defined as one unit of enzyme activity. Cu/Zn-SOD activity was inhibited by performing the assay in the presence of 2 mM NaCN after pre-incubation for thirty minutes. Enzymatic activity was expressed in units per milligram of protein (Wang et al., 2004).

neutral SMase = assay: sphingomyelinase activity in spinal cord tissues, neutral isoform (Amplex Red kit); assay type: in vivo, mice; settings: repeated morphine vs vehicle (not shown)
Method: Sphingomyelinase activity was measure using Amplex® Red Sphingomyelinase Assay Kit (Molecular Probes, Eugene, Oreg.) following manufacturer's instructions. First, spinal cord tissues were homogenized in buffers for each specific assay as previously described (Dobrowsky and Kolesnick, 2001). For the acid isoforms, Na acetate (100 mM and pH 5.0) lysis buffer was used. 2 mM EDTA was added to the lysis buffer for detection of the insoluble isoform. For neutral isoform detection, the tissues were homogenized in Hepes (20 mM, pH 7.4) lysis buffer. The kinetics for sphingomyelinase activity was measured in a fluorescence microplate reader for two hours followed by normalization per protein concentration of the sample. Hydrogen peroxide and sphingomyelinase were used as positive controls.

IL-1β = IL-1β in dorsal horn of lumbar spinal cord by ELISA; assay type: in vivo, mice; settings: morphine group vs vehicle group, n=10
[2] = system: serine palmitoyl transferase (SPT); assay: serine palmitoyl transferase (SPT) activity; assay type: in vivo, mice; settings: repeated morphine, tolerant mice vs vehicle
Method: SPT activity was determined by measuring the incorporation of [^3H] serine into 3-ketosphinganine following the method previously described (Williams et al., 1984). The results were normalized by the samples' protein concentration.

IL-6 = IL-6 in dorsal horn of lumbar spinal cord by ELISA; assay type: in vivo, mice; settings: morphine group vs vehicle group, n=10
TNF-α = TNF-α in dorsal horn of lumbar spinal cord by ELISA; assay type: in vivo, mice; settings: morphine group vs vehicle group, n=10

SMILES	increase in CS activity (ceramide synthase; co-administration of morphine with FB1 1 mg/kg/d, n=10)	Rotarod motor function deficits (mice)	loss of MnSOD enzymatic activity [1]	enzymatic activity of ceramide synthase (CS) (ceramide synthase; repeated morphine, tolerant mice vs vehicle)	activity of the neutral SMase (neutral SMase)	IL-1β in dorsal horn tissues (IL-1β)	enzymatic activity of serine palmytoyl transferase (SPT) [2]	IL-6 in dorsal horn tissues (IL-6)	TNF-α in dorsal horn tissues (TNF-α)
CCCC[C@@H](C)[C@@H](OC(=O)C[C@@H](CC(=O)O)C(=O)O)[C@H](C[C@@H](C)C[C@H](O)CCCC[C@@H](O)C[C@H](O)[C@H](C)N)OC(=O)C[C@@H](CC(=O)O)C(=O)O [FB1, Fumonisin B1]	attenuated as expected the increase in CS activity	did not show signs of Rotarod deficits	restored in a dose-dependent manner						
CN1CC[C@]23c4c5ccc(O)c4O[C@H]2[C@@H](O)C=C[C@H]3[C@H]1C5 [morphine]				increased enzymatic activity	not changed compared to vehicle	increased immunoreactivity; also recorded: significant increase	increased enzymatic activity	increased immunoreactivity; also recorded: significant increase	increased immunoreactivity; also recorded: significant increase
